# Test results reported in US12617756B2 (ABIVAX, priority 2019, dated 2026).
# System: RSV A2
# Assay: Screening for RSV inhibition using Viral ToxGlo assay (cytopathic effect inhibition in HEp-2 cells)
# Type: cell-based, Respiratory Syncytial Virus (RSV)
# Conditions: human respiratory syncytial virus; RSV A2 in HEp-2 cells, MOI 0.5, 72h p.i., cytopathic effect inhibition relative to virus control, Viral ToxGlo luminescence
# Summary of the method: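 HEp-2 cells in 2% FBS medium infected with RSV A2 right after compound addition (max 1% DMSO), uninfected wells used for cytotoxicity. After 72 h p.i. at 37 °C/5% CO2, cell viability read by Viral ToxGlo luminescence as measure of cytopathic effect.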
row,SMILES,EC50
1,"O=C(N=C1NCCN1)c1ccc(Nc2cccc(C(=O)N3CCOC(C(F)(F)F)C3)c2Cl)c(C2CC2)c1 (stereo not shown) [Compound 121, 4-({2-chloro-3-[2-(trifluoromethyl)morpholine-4-carbonyl]phenyl}amino)-3-cyclopropyl-N—[imidazolidin-2-ylidene]benzamide]",5.1 nM
2,"O=C(N=C1NCCN1)c1ccc(Nc2cccc(C(=O)N3CCOCC3C(F)(F)F)c2Cl)c(C2CC2)c1 (stereo not shown) [Compound 122, 4-({2-chloro-3-[3-(trifluoromethyl)morpholine-4-carbonyl]phenyl}amino)-3-cyclopropyl-N—[imidazolidin-2-ylidene]benzamide]",7.8 nM
3,"CC1(NC(=O)c2ccnc(Nc3ccc(C(=O)N=C4NCCN4)cc3C3CC3)c2Cl)CC1 [Compound 123, 3-chloro-2-[(2-cyclopropyl-4-{[imidazolidin-2-ylidene]carbamoyl}phenyl)amino]-N-(1-methylcyclopropyl)pyridine-4-carboxamide]",83 nM
4,"CC1(NC(=O)c2cccc(Nc3c(F)cc(C(=O)N=C4NCCN4)cc3C3CCCO3)c2)CC1 (stereo not shown) [Compound 125, 3-fluoro-N—[imidazolidin-2-ylidene]-4-({3-[(1-methylcyclopropyl)carbamoyl]phenyl}amino)-5-(oxolan-2-yl)benzamide]",19.1 nM
5,"N#CC1(NC(=O)c2cccc(Nc3c(F)cc(C(=O)N=C4NCCN4)cc3C3CC3)c2)CC1 [Compound 127, 4-({3-[(1-cyanocyclopropyl)carbamoyl]phenyl}amino)-3-cyclopropyl-5-fluoro-N-[imidazolidin-2-ylidene]benzamide]",101 nM
6,"CC(C)NC(=O)c1cc(F)cc(Nc2c(F)cc(C(=O)N=C3NCCN3)cc2C2CC2)c1 [Compound 128, 3-cyclopropyl-5-fluoro-4-({3-fluoro-5-[(propan-2-yl)carbamoyl]phenyl}amino)-N-[imidazolidin-2-ylidene]benzamide]",13.2 nM
7,"CC1(NC(=O)c2cccc(Nc3c(F)cc(C(=O)N=C4NCCN4)cc3C3CC3)c2Cl)CC1 [Compound 129, 4-({2-chloro-3-[(1-methylcyclopropyl)carbamoyl]phenyl}amino)-3-cyclopropyl-5-fluoro-N-[imidazolidin-2-ylidene]benzamide]",4.3 nM
8,"CC(C)NC(=O)c1cccc(Nc2c(F)cc(C(=O)N=C3NCCN3)cc2C2CC2)c1F [Compound 130, 3-cyclopropyl-5-fluoro-4-({2-fluoro-3-[(propan-2-yl)carbamoyl]phenyl}amino)-N-[imidazolidin-2-ylidene]benzamide]",7.3 nM
9,"CC(C)NC(=O)c1cccc(Nc2cc(F)c(C(=O)N=C3NCCN3)cc2C2CC2)c1 [Compound 131, 5-cyclopropyl-2-fluoro-N-[imidazolidin-2-ylidene]-4-({3-[(propan-2-yl)carbamoyl]phenyl}amino)benzamide]",77.9 nM
10,"CC1(NC(=O)c2cccc(Nc3ccc(C(=O)N=C4NCCN4)cc3C(C)(C)C)c2Cl)CC1 [Compound 132, 3-tert-butyl-4-({2-chloro-3-[(1-methylcyclopropyl)carbamoyl]phenyl}amino)-N-[imidazolidin-2-ylidene]benzamide]",23.6 nM
11,"O=C(N=C1NCCN1)c1cc(F)c(Nc2cccc(C(=O)N3CCOCC3)c2Cl)c(C2CCOC2)c1 (stereo not shown) [Compound 134, 4-{[2-chloro-3-(morpholine-4-carbonyl)phenyl]amino}-3-fluoro-N-[imidazolidin-2-ylidene]-5-(oxolan-3-yl)benzamide]",39.2 nM
12,"CC1(NC(=O)c2cccc(Nc3c(F)cc(C(=O)N=C4NCCN4)cc3C3CCCO3)c2Cl)CC1 (stereo not shown) [Compound 135, 4-({2-chloro-3-[(1-methylcyclopropyl)carbamoyl]phenyl}amino)-3-fluoro-N-[imidazolidin-2-ylidene]-5-(oxolan-2-yl)benzamide]",28.7 nM
13,"CC1(NC(=O)c2ccnc(Nc3c(F)cc(C(=O)N=C4NCCN4)cc3C3CC3)c2Cl)CC1 [Compound 136, 3-chloro-2-[(2-cyclopropyl-6-fluoro-4-{[imidazolidin-2-ylidene]carbamoyl}phenyl)amino]-N-(1-methylcyclopropyl)pyridine-4-carboxamide]",32 nM
14,"CC1(NC(=O)c2cccc(Nc3ccc(C(=O)N=C4NCCN4)cc3C3CCCO3)c2Cl)CC1 (stereo not shown) [Compound 137, 4-({2-chloro-3-[(1-methylcyclopropyl)carbamoyl]phenyl}amino)-N-[imidazolidin-2-ylidene]-3-(oxolan-2-yl)benzamide]",204 nM
15,"CC(C)NC(=O)c1cc(F)cc(Nc2ccc(C(=O)N=C3NCCN3)cc2C2CC2)c1F [Compound 138, 3-[(2-cyclopropyl-4-{[imidazolidin-2-ylidene]carbamoyl}phenyl)amino]-2,5-difluoro-N-(propan-2-yl)benzamide]",233 nM
16,"CC1(NC(=O)c2cc(F)cc(Nc3ccc(C(=O)N=C4NCCN4)cc3C3CC3)c2F)CC1 [Compound 139, 3-[(2-cyclopropyl-4-{[imidazolidin-2-ylidene]carbamoyl}phenyl)amino]-2,5-difluoro-N-(1-methylcyclopropyl)benzamide]",152 nM

row,SMILES,EC50
1,"CC1(NC(=O)c2cccc(Nc3ccc(C(=O)N=C4NCCN4)cc3C3CCCO3)c2)CC1 (stereo not shown) [Compound 140, N-[imidazolidin-2-ylidene]-4-({3-[(1-methylcyclopropyl)carbamoyl]phenyl}amino)-3-(oxolan-2-yl)benzamide]",227 nM
2,"N#CC1(C(=O)Nc2cccc(Nc3ccc(C(=O)N=C4NCCN4)cc3C3CC3)c2)CC1 [Compound 141, 4-{[3-(1-cyanocyclopropaneamido)phenyl]amino}-3-cyclopropyl-N-[imidazolidin-2-ylidene]benzamide]",150 nM
3,"O=C(N=C1NCCN1)c1cc(F)c(Nc2cccc(C(=O)N3CCOCC3C(F)(F)F)c2)c(C2CC2)c1 (stereo not shown) [Compound 142, 3-cyclopropyl-5-fluoro-N-[imidazolidin-2-ylidene]-4-({3-[3-(trifluoromethyl)morpholine-4-carbonyl]phenyl}amino)benzamide]",41.4 nM
4,"CC1(NC(=O)c2cccc(Nc3c(F)cc(C(=O)N=C4NCCN4)cc3C3CC3)c2F)CC1 [Compound 143, 3-cyclopropyl-5-fluoro-4-({2-fluoro-3-[(1-methylcyclopropyl)carbamoyl]phenyl}amino)-N-[imidazolidin-2-ylidene]benzamide]",59.7 nM
5,"O=C(N=C1NCCN1)c1cc(F)c(Nc2cccc(C(=O)N3CCOC(C(F)(F)F)C3)c2)c(C2CC2)c1 (stereo not shown) [Compound 144, 3-cyclopropyl-5-fluoro-N-[imidazolidin-2-ylidene]-4-({3-[2-(trifluoromethyl)morpholine-4-carbonyl]phenyl}amino)benzamide]",48.1 nM
6,"O=C(N=C1NCCN1)c1cc(F)c(Nc2cccc(C(=O)N3CCOCC3)c2)c(C2CCCO2)c1 (stereo not shown) [Compound 145, 3-fluoro-N-[imidazolidin-2-ylidene]-4-{[3-(morpholine-4-carbonyl)phenyl]amino}-5-(oxolan-2-yl)benzamide]",475 nM
7,"CC1(NC(=O)c2cccc(Nc3ncc(C(=O)N=C4NCCN4)cc3C3CC3)c2Cl)CC1 [Compound 146, 6-({2-chloro-3-[(1-methylcyclopropyl)carbamoyl]phenyl}amino)-5-cyclopropyl-N-[imidazolidin-2-ylidene]pyridine-3-carboxamide]",253 nM
8,"CC1(NC(=O)c2ccnc(Nc3c(F)cc(C(=O)N=C4NCCN4)cc3C3CC3)c2F)CC1 [Compound 147, 2-[(2-cyclopropyl-6-fluoro-4-{[imidazolidin-2-ylidene]carbamoyl}phenyl)amino]-3-fluoro-N-(1-methylcyclopropyl)pyridine-4-carboxamide]",99.4 nM
9,"CC(C)NC(=O)c1cc(F)cc(Nc2ccc(C(=O)N=C3NCCN3)cc2C2CC2)c1C1CC1 [Compound 148, 2-cyclopropyl-3-[(2-cyclopropyl-4-{[imidazolidin-2-ylidene]carbamoyl}phenyl)amino]-5-fluoro-N-(propan-2-yl)benzamide]",347 nM
10,"CC1(NC(=O)c2cccc(Nc3c(C#N)cc(C(=O)N=C4NCCN4)cc3C3CC3)c2)CC1 [Compound 149, 3-cyano-5-cyclopropyl-N-[imidazolidin-2-ylidene]-4-({3-[(1-methylcyclopropyl)carbamoyl]phenyl}amino)benzamide]",45.8 nM
11,"CC1(NC(=O)c2nccc(Nc3ccc(C(=O)N=C4NCCN4)cc3C3CC3)c2Cl)CC1 [Compound 150, 3-chloro-4-[(2-cyclopropyl-4-{[imidazolidin-2-ylidene]carbamoyl}phenyl)amino]-N-(1-methylcyclopropyl)pyridine-2-carboxamide]",263 nM
12,"N#CC1(NC(=O)c2ccnc(Nc3c(F)cc(C(=O)N=C4NCCN4)cc3C3CC3)c2F)CC1 [Compound 152, N-(1-cyanocyclopropyl)-2-[(2-cyclopropyl-6-fluoro-4-{[imidazolidin-2-ylidene]carbamoyl}phenyl)amino]-3-fluoropyridine-4-carboxamide]",1140 nM
13,"O=C(N=C1NCCN1)c1cc(F)c(Nc2nccc(C(=O)N3CCOCC3)c2Cl)c(C2CC2)c1 [Compound 153, 4-{[3-chloro-4-(morpholine-4-carbonyl)pyridin-2-yl]amino}-3-cyclopropyl-5-fluoro-N-[imidazolidin-2-ylidene]benzamide]",31.6 nM
14,"O=C(N=C1NCCN1)c1cc(F)c(Nc2nccc(C(=O)N3C[C@H]4C[C@@H]3CO4)c2Cl)c(C2CC2)c1 [Compound 154, 4-({3-chloro-4-[(1R,4R)-2-oxa-5-azabicyclo[2.2.1]heptane-5-carbonyl]pyridin-2-yl}amino)-3-cyclopropyl-5-fluoro-N-[imidazolidin-2-ylidene]benzamide]",69.8 nM
15,"O=C(N=C1NCCN1)c1cc(F)c(Nc2nccc(C(=O)N3C[C@@H]4C[C@H]3CO4)c2Cl)c(C2CC2)c1 [Compound 155, 4-({3-chloro-4-[(1S,4S)-2-oxa-5-azabicyclo[2.2.1]heptane-5-carbonyl]pyridin-2-yl}amino)-3-cyclopropyl-5-fluoro-N-[imidazolidin-2-ylidene]benzamide]",51.8 nM
